In patent US20100249138A1, “MPZP: A SMALL MOLECULE CORTICOTROPIN-RELEASING FACTOR TYPE 1 RECEPTOR (CRF1) ANTOGONIST” (priority 2007, published 2010):
Entries after “also recorded” stand apart in the source; their conditions may differ.

Assays:
[1] = system: nicotine self-administration; assay: Nicotine self-administration, extended (23 hour) or limited (1 hour) access, nicotine deprivation effect; assay type: in vivo, rat
Procedure: The apparatus and detailed procedures for both intravenous catheterization and self-administration of nicotine have been described previously [O'dell et al., Pharmacol. Biochem. Behay. (2007) 86:346-353]. Adult male Wistar rats (280 to 330 g) were first allowed to nose-poke for food and water in 23 hours sessions prior to and after recovery from surgical implantation of jugular catheters. Following acquisition of these operant responses, rats were allowed to self-administer nicotine (0.03 mg/kg/100 μl/1 s, free base, fixed ratio=1 lever-response, time out=20 seconds) under different paradigms. Rats were allowed to acquire nicotine self-administration during daily 1 hour, “short-access” sessions (ShA, n=10) for at least 10 days. The CRF1 antagonist MPZP (0, 5, 10, 20 mg/kg) was then administered using a Latin square design, with 1-2 intervening treatment-free days. After completion of Study B, rats were allowed to self-administer nicotine during daily 23 hours, “long-access” sessions (LgA, n=8) for at least 10 days. Then, they were allowed to respond on a lever for nicotine self-administration in 4 four-day cycles, each separated by three intervening days of abstinence in their home cage. MPZP was administered before the first session following each cycle of abstinence using a Latin square design.

[2] = system: cocaine self-administration; assay: Cocaine self-administration in short access (ShA) and long access (LgA) rats; assay type: in vivo, rat; settings: for cocaine intake compared with vehicle: 45 minutes before session
[3] = system: defensive burying model of active anxiety-like behavior; settings: doses similar to 3.6-27.5 mg/kg; Fekete et al. 2003; cited from earlier work
[4] = system: CRF2 receptors; assay: CRF receptor autoradiography, rat brain sections, CRF2-rich regions; assay type: binding
Procedure: For CRF receptor autoradiography, brain tissue was sectioned coronally (20 μm) using a cryostat (−17° C.). Sections were mounted on Superfrost Plus+ charged glass slides (Fisher Scientific, Pittsburgh, Pa.), permitted to dry completely, and stored in airtight boxes at −80° C. until the day of autoradiography. Autoradiography was performed using standard procedures based on the previous characterization of [^125I]Tyr^0-sauvagine [Grigoriadis et al., Mol. Pharmacol. (1996) 50:679-686].
Slides containing triplicate adjacent brain sections were thawed to room temperature and permitted to dry completely. Each section then was outlined using a PAP pen (Calbiochem, San Diego, Calif.). Sections were incubated in assay buffer (DPBS with 10 mM MgCl2, 2 mM EGTA, 1 tablet/100 ml protease inhibitor, 0.15% bovine serum albumin) for 15 minutes to remove endogenous ligand. Slides then were incubated under one of four conditions: (1) 0.2 nM […] to determine total binding; (2) 0.2 nM radiolabeled sauvagine+1 μM R121919 (below)
to determine non-CRF1 (e.g., CRF2) receptor binding; (3) 0.2 nM radiolabeled sauvagine+3 μM MPZP to determine non-CRF1 (e.g., CRF2) receptor binding using the experimental compound under study; (4) 0.2 nM radiolabeled sauvagine+0.3 μM unlabeled D-Phe-CRF12-41, a subtype-nonspecific CRF receptor antagonist, to determine non-CRF1/CRF2 (e.g., nonspecific binding).
After 2 hours incubation at room temperature, unbound radioligand was removed via a brief dip in ice-cold assay buffer, followed by two 5 minute rinses in ice-cold washing buffer (DPBS with 0.01% Triton-X100) and one brief dip in ice-cold distilled, deionized H2O. Slides then were dried at room temperature and exposed to Kodak Biomax MR film for 2 days. Unlabeled peptides (sauvagine, D-Phe-CRF12-41) were generously provided by Dr. Jean Rivier (The Salk Institute, La Jolla, Calif.). Images were captured using a light box and digital camera computer workstation using a MTI CCDC72 digital camera equipped with a 90 mm Tamron macro lens. […]

For `COCCN(CCOC)c1cc(C)nc2c(-c3ccc(OC)cc3C)c(C)nn12` [MPZP, N,N-bis(2-methoxyethyl)-3-(4-methoxy-2-methylphenyl)-2,5-dimethyl-pyrazolo[1,5-a]pyrimidin-7-amine], the “nicotine intake following abstinence” value ([1]; extended access (23 hour), 0, 5, 10, 20 mg/kg s.c., vs vehicle-treated) was “dose-dependently decreased”, the “baseline nicotine self-administration responding” value ([1]; limited access to nicotine (1 hour), s.c.) was “had no effect; also recorded: lack of effect” and the “slope of linear trend dose function on cocaine intake” value ([2]; LgA rats) was −0.601±0.176. The “cocaine intake compared with vehicle” value ([2]; LgA rats, 10 mg/kg s.c.) was “significant decrease”, the “cocaine intake compared with vehicle” value ([2]; LgA rats, 27.5 mg/kg s.c.) was “significant decrease” and the “slope of linear trend dose function on cocaine intake” value ([2]; ShA rats) was −0.254±0.106. The “cocaine intake compared with vehicle” value ([2]; ShA rats, 27.5 mg/kg s.c.) was “significant decrease”, the “anxiety-like behavior in the defensive burying test” value [3] was “reduced anxiety-like behavior” and the “displacement of [125I]-Tyr0-sauvagine binding from CRF2-rich regions” value ([4]; 3 μM, rat lateral septum, ventromedial hypothalamus, choroid plexus, cerebral arterioles) was “did not displace”. For the same compound, the “specificity for CRF2 receptors” value ([4]; at up to 1 μM concentrations) was “no measurable specificity” and the “displacement of [125I]-Tyr0-sauvagine binding (CRF2-like binding)” value ([4]; rat lateral septum or ventromedial hypothalamus, concentration printed 1 mM) was “does not displace”.
